Data reported in patent US20230339939A1 (Bayer Aktiengesellschaft, priority 2020, published 2023).
Like-named read-outs stand apart in the source and are kept apart here.

Legend:
[1] = target: wild-type Epidermal Growth Factor Receptor (EGFR) (Homo sapiens (Human), UniProt P00533); assay: WT-EGFR Kinase Assay (TR-FRET, 2 mM ATP); type: biochemical
Description: Inhibitory activity of compounds of the present invention against wild-type Epidermal Growth Factor Receptor (EGFR) was quantified employing the TR-FRET based EGFR assay as described in the following paragraphs.
Recombinant fusion protein of N-terminal Glutathion-S-Transferase (GST) and a fragment of human EGFR (amino acids R669 to A1210), expressed in Sf9 insect cells and purified via affinity chromatography using Glutathion Sepharose as described above, was used as kinase. As substrate for the kinase reaction the biotinylated peptide biotin-Ahx-[…] (C-terminus in amide form) was used which can be purchased e.g. form the company Biosynthan GmbH (Berlin-Buch, Germany).
For the assay 50 nl of a 100 fold concentrated solution of the test compound in DMSO was pipetted into either a black low volume 384 well microtiter plate or a black 1536 well microtiter plate (both Greiner Bio-One, Frickenhausen, Germany), 2 μL of a solution of EGFR in aqueous assay buffer [50 mM Hepes pH 7.0, 10 mM MgCl2, 1 mM dithiothreitol, 0.5 mM EGTA, 0.3 mM activated sodium ortho-vanadate, 0.005% (w/v) bovine serum albumin, 0.005% (v/v) Tween-20] were added and the mixture was incubated for 15 min at 22° C. to allow pre-binding of the test compounds to the enzyme before the start of the kinase reaction. […] The concentration of EGFR was adjusted depending of the activity of the enzyme lot and was chosen appropriate to have the assay in the linear range, typical concentration was 7.6 pg/μL. The reaction was stopped by the addition of 3 μL of a solution of HTRF detection reagents (83.3 nM streptavidine-XL665 [Cisbio Bioassays, Codolet, France] and 1.67 nM PT66-Tb-Cryptate, a terbium-cryptate labelled anti-phospho-tyrosine antibody from Cisbio Bioassays [instead of the PT66-Tb-cryptate PT66-Eu-Chelate from Perkin Elmer can also be used]) in an aqueous EDTA-solution (133.3 mM EDTA, 0.2% (w/v) bovine serum albumin in 50 mM HEPES pH 7.5).
The resulting mixture was incubated 1 h at 22° C. to allow the binding of the biotinylated phosphorylated peptide to the streptavidine-XL665 and the PT66-Tb-Cryptate. Subsequently the amount of phosphorylated substrate was evaluated by measurement of the resonance energy transfer from the PT66-Tb-Cryptate to the streptavidine-XL665. Therefore, the fluorescence emissions at 620 nm and 665 nm after excitation at 337 nm were measured in a HTRF reader, e.g. a Pherastar (BMG Labtechnologies, Offenburg, Germany) or a Viewlux (Perkin-Elmer). The ratio of the emissions at 665 nm and at 622 nm was taken as the measure for the amount of phosphorylated substrate.

CSNK1A1 = CSNK1A1 (Homo sapiens (Human), UniProt P48729); assay: CSNK1A1 Assay 2 (ADP-Glo, 1 μM ATP, substrate biotin-Ahx-KRRRAL-pS-VASLPGL); type: biochemical; details: median, read-out: CSNK1A1 Assay 2 IC50 [mol/l] (median)
Method: CSNK1A1-inhibitory activity of compounds of the present invention in presence of 1 μM adenosine-tri-phosphate (ATP) was quantified employing the CSNK1A1 assay as described in the following paragraphs. In essence, the enzyme activity is measured by quantification of the adenosine-di-phosphate (ADP), which is generated as a co-product of the enzyme reaction, via the “ADP-Glo™ Kinase Assay” kit from the company Promega. This detection system works as follows: In a first step the ATP not consumed in the kinase reaction is quantitatively converted to cAMP employing an adenylate cyclase (“ADP-Glo-reagent”), then the adenylate cyclase is stopped and the ADP generated in the kinase reaction converted to ATP which generates in a luciferase-based reaction a glow-luminescence signal (“Kinase Detection Reagent”).
Recombinant fusion protein of N-terminal Glutathion-S-Transferase (GST) and full-length human CSNK1A1, expressed by baculovirus infected insect cells and purified via Glutathion affinity chromatography, was purchased from Life Technologies (product no. PV4174) and used as enzyme. As substrate for the kinase reaction the biotinylated peptide biotin-Ahx-KRRRAL-pS-VASLPGL (C-terminus in amide form) was used which can be purchased e.g. from the company Biosyntan (Berlin-Buch, Germany).
For the assay 50 nl of a 100 fold concentrated solution of the test compound in DMSO was pipetted into a white 1536-well microtiter plate (Greiner Bio-One, Frickenhausen, Germany), 2 μL of a solution of CSNK1A1 in aqueous assay buffer [50 mM HEPES pH 7.5, 10% (v/v) glycerol, 10 mM MgCl2, 50 mM NaCl, 1 mM dithiothreitol, 0.01% (w/v) bovine serum albumin, 0.01% (v/v) Triton X-100] were added and the mixture was incubated for 15 min at 22° C. to allow pre-binding of the test compounds to the enzyme before the start of the kinase reaction. […] The concentration of CSNK1A1 was adjusted depending of the activity of the enzyme lot and was chosen appropriate to have the assay in the linear range, a typical concentrations are about 0.0375 ng/μL. The reaction was stopped by the addition of 2.5 μL of “ADP-Glo-reagent” (1:1.5 fold diluted with water) and the resulting mixture was incubated at 22° C. for 1 h to convert the ATP not consumed in the kinase reaction completely […]. Subsequently 2.5 μL of the “kinase detection reagent” (1.2 fold more concentrated than recommended by the producer) were added, the resulting mixture was incubated at 22° C. for 1 h and then the luminescence measured with a suitable measurement instrument (e.g. Viewlux™ from Perkin-Elmer). The amount of emitted light was taken as a measure for the amount of ADP generated and thereby for the activity of the CSNK1A1.

[2] = read-out: EGFR Wildtype 2 mM ATP IC50 [mol/l] (median)

Chain of CSNK1A1 (P48729 whole entry): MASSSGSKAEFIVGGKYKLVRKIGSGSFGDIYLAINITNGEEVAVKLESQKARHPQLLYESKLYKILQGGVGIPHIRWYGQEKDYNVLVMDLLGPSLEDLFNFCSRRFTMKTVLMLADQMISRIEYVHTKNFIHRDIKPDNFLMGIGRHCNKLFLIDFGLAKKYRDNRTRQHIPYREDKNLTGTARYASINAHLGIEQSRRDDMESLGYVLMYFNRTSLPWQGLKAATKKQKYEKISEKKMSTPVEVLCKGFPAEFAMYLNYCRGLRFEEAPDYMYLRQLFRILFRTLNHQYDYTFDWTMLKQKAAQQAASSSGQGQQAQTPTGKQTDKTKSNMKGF
Chain of wild-type Epidermal Growth Factor Receptor (EGFR) (P00533 669-1210): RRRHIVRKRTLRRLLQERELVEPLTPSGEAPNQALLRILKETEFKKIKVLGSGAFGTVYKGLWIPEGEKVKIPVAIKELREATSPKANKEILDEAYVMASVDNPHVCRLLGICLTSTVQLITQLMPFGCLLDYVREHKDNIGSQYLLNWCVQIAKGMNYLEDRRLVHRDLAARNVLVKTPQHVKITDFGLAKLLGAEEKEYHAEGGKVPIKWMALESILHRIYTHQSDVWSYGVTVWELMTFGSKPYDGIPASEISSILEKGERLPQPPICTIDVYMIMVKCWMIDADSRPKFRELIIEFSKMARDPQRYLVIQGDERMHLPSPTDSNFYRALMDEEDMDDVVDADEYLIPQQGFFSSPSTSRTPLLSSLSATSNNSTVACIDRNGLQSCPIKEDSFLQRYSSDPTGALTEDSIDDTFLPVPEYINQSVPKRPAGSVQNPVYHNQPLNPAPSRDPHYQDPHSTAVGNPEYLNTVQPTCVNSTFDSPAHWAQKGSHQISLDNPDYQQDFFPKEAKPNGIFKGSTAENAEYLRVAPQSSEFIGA

Row | SMILES | IC50 ([1]; median) [nM] | IC50 (CSNK1A1) [nM] | IC50 [1, 2] [nM]
1 | CC(C(=O)Nc1cc(-c2[nH]c3ccc(F)nc3c2-c2ccccn2)ccn1)c1ccc(F)cc1 (racemic) [Example 1, 2-(4-fluorophenyl)-N-{4-[5-fluoro-3-(pyridin-2-yl)-1H-pyrrolo[3,2-b]pyridin-2-yl]pyridin-2-yl}propanamide] | > 20000 | 1.66 | 
2 | CC(C(=O)Nc1cc(-c2[nH]c3cccnc3c2-c2ccccn2)ccn1)c1ccc(F)cc1 (racemic) [Example 6, 2-(4-fluorophenyl)-N-{4-[3-(pyridin-2-yl)-1H-pyrrolo[3,2-b]pyridin-2-yl]pyridin-2-yl}propanamide] | > 20000 | 1.73 | 
3 | CC(C(=O)Nc1cc(-c2[nH]c3cccnc3c2-c2ccccc2)ccn1)c1ccc(F)cc1 (racemic) [Example 11, 2-(4-fluorophenyl)-N-[4-(3-phenyl-1H-pyrrolo[3,2-b]pyridin-2-yl)pyridin-2-yl]propanamide] | > 20000 | 6.11 | 
4 | Cc1cc2[nH]c(-c3ccnc(NC(=O)C(C)c4ccc(F)cc4)c3)c(-c3ccccn3)c2nc1F (racemic) [Example 28, N-{4-[5-fluoro-6-methyl-3-(pyridin-2-yl)-1H-pyrrolo[3,2-b]pyridin-2-yl]pyridin-2-yl}-2-(4-fluorophenyl)propanamide] | > 20000 | 4.61 | 
5 | COCC(C(=O)Nc1cc(-c2[nH]c3cccnc3c2-c2ccccn2)ccn1)c1ccc(F)cc1 (racemic) [Example 43, (2RS)-2-(4-fluorophenyl)-3-methoxy-N-(4-(3-(pyridin-2-yl)-1H-pyrrolo[3,2-b]pyridin-2-yl)pyridin-2-yl)propanamide] | > 20000 | 3.51 | 
6 | COCCC(C(=O)Nc1cc(-c2[nH]c3cccnc3c2-c2ccccn2)ccn1)c1ccc(F)cc1 (racemic) [Example 44] | > 20000 | 4.97 | 
7 | COCC(C(=O)Nc1cc(-c2[nH]c3cc(F)cnc3c2-c2ccccn2)ccn1)c1ccc(F)cc1 (racemic) [Example 45, (2RS)-2-(4-fluorophenyl)-N-[4-[6-fluoro-3-(2-pyridyl)-1H-pyrrolo[3,2-b]pyridin-2-yl]-2-pyridyl]-3-methoxy-propanamide] | > 20000 | 4.83 | 
8 | CC(C(=O)Nc1cc(-c2[nH]c3ccc(F)nc3c2-c2ccccn2)ccn1)c1ccc(F)cc1 (single isomer, unassigned; (+)) [Example 3, (+)-2-(4-fluorophenyl)-N-{4-[5-fluoro-3-(pyridin-2-yl)-1H-pyrrolo[3,2-b]pyridin-2-yl]pyridin-2-yl}propanamide] |  | 1 | > 20000
9 | CC(C(=O)Nc1cc(-c2[nH]c3cccnc3c2-c2ccccn2)ccn1)c1ccc(F)cc1 (single isomer, unassigned; (+)) [Example 7, (+)-2-(4-fluorophenyl)-N-{4-[3-(pyridin-2-yl)-1H-pyrrolo[3,2-b]pyridin-2-yl]pyridin-2-yl}propanamide] | > 20000 | 0.949 | 
10 | CC(C)C(C(=O)Nc1cc(-c2[nH]c3ccc(F)nc3c2-c2ccccn2)ccn1)c1ccc(F)cc1 (single isomer, unassigned; (+)) [Example 26, (+)-2-(4-fluorophenyl)-N-{4-[5-fluoro-3-(pyridin-2-yl)-1H-pyrrolo[3,2-b]pyridin-2-yl]pyridin-2-yl}-3-methylbutanamide] |  | 3.5 | > 20000
11 | Cc1cc2[nH]c(-c3ccnc(NC(=O)C(C)c4ccc(F)cc4)c3)c(-c3ccccn3)c2nc1F (single isomer, unassigned; (+)) [Example 29, (+)-N-{4-[5-fluoro-6-methyl-3-(pyridin-2-yl)-1H-pyrrolo[3,2-b]pyridin-2-yl]pyridin-2-yl}-2-(4-fluorophenyl)propanamide] | > 20000 | 13.8 | 
12 | CC(C(=O)Nc1cc(-c2[nH]c3ccc(F)nc3c2-c2ccccn2)ccn1)c1ccc(F)cc1 (single isomer, unassigned; (-)) [Example 2, (−)-2-(4-fluorophenyl)-N-{4-[5-fluoro-3-(pyridin-2-yl)-1H-pyrrolo[3,2-b]pyridin-2-yl]pyridin-2-yl}propanamide] | > 20000 | 10.9 | 
13 | CC(C(=O)Nc1cc(-c2[nH]c3cccnc3c2-c2ccccn2)ccn1)c1ccc(F)cc1 (single isomer, unassigned; (-)) [Example 8, (−)-2-(4-fluorophenyl)-N-{4-[3-(pyridin-2-yl)-1H-pyrrolo[3,2-b]pyridin-2-yl]pyridin-2-yl}propanamide] |  | 7.53 | > 20000
14 | CC(C)C(C(=O)Nc1cc(-c2[nH]c3ccc(F)nc3c2-c2ccccn2)ccn1)c1ccc(F)cc1 (single isomer, unassigned; (-)) [Example 25, (−)-2-(4-fluorophenyl)-N-{4-[5-fluoro-3-(pyridin-2-yl)-1H-pyrrolo[3,2-b]pyridin-2-yl]pyridin-2-yl}-3-methylbutanamide] | > 20000 | 23.9 | 
15 | Cc1cc2[nH]c(-c3ccnc(NC(=O)C(C)c4ccc(F)cc4)c3)c(-c3ccccn3)c2nc1F (single isomer, unassigned; (-)) [Example 30, (−)-N-{4-[5-fluoro-6-methyl-3-(pyridin-2-yl)-1H-pyrrolo[3,2-b]pyridin-2-yl]pyridin-2-yl}-2-(4-fluorophenyl)propanamide] |  | 1.69 | > 20000
16 | O=C(Cc1ccc(F)cc1)Nc1cc(-c2[nH]c3ccc(F)nc3c2-c2ccccn2)ccn1 [Example 4, 2-(4-fluorophenyl)-N-{4-[5-fluoro-3-(pyridin-2-yl)-1H-pyrrolo[3,2-b]pyridin-2-yl]pyridin-2-yl}acetamide] |  | 0.739 | > 20000
17 | O=C(Cc1ccc(F)cc1)Nc1cc(-c2[nH]c3cccnc3c2-c2ccccn2)ccn1 [Example 5, 2-(4-fluorophenyl)-N-{4-[3-(pyridin-2-yl)-1H-pyrrolo[3,2-b]pyridin-2-yl]pyridin-2-yl}acetamide] |  | 1.06 | > 20000
18 | O=C(Cc1ccc(F)cc1)Nc1cc(-c2[nH]c3cc(F)cnc3c2-c2ccccn2)ccn1 [Example 9, 2-(4-fluorophenyl)-N-{4-[6-fluoro-3-(pyridin-2-yl)-1H-pyrrolo[3,2-b]pyridin-2-yl]pyridin-2-yl}acetamide] |  | 1.68 | > 20000
19 | O=C(Cc1ccc(F)cc1)Nc1cc(-c2[nH]c3cc(F)cnc3c2-c2ccccc2)ccn1 [Example 10, 2-(4-fluorophenyl)-N-[4-(6-fluoro-3-phenyl-1H-pyrrolo[3,2-b]pyridin-2-yl)pyridin-2-yl]acetamide] |  | 3.83 | > 20000
